# Assay: logP of fragrance raw materials and fragrances
# Settings: not given
row,Compound,logP
1,CCCC(C)C(=O)OCC (racemic) [(+ −)-ETHYL 2-METHYLPENTANOATE],2.76
2,"CCCCCCC1CCC(=O)O1 (racemic) [DECALACTONE CP, (+ −)-4-DECANOLIDE]",2.72
3,"C=CC(C)CCCC(C)(C)O (racemic) [DIHYDROMYRCENOL PURE, (+ −)-2,6-DIMETHYL-7-OCTEN-2-OL]",3.47
4,"CC(=O)/C(C)=C/C1C(C)=CCCC1(C)C (racemic) [ISORALDEINE 70 P, (+ −)-(3E)-3-methyl-4-(2,6,6-trimethyl-2-cyclohexen-1-yl)-3-buten-2-one]",4.84
5,"CC1/C=C/CCCCCCCCCCC(=O)C1 (racemic) [MUSCENONE DELTA, (+ −)-(4E)-3-METHYL-4-CYCLOPENTADECEN-1-ONE]",5.75
6,"CCCCCC1(C)CCC(C)(C)C1=O (racemic) [VELOUTONE, (+ −)-2,2,5-trimethyl-5-pentylcyclopentanone]",4.34
7,"Cc1ccc2c(c1)OCC(=O)CO2 [CALONE ®, 7-methyl-2H-1,5-benzodioxepin-3(4H)-one]",2.43
8,"CC(C)(O)CCC1CCCCC1 [CORANOL, 4-CYCLOHEXYL-2-METHYL-2-BUTANOL]",3.98
9,"O=C1CCCCCCCCCCCCCCO1 [EXALTOLIDE ®, oxacyclohexadecan-2-one]",6.15
10,"CCOC(=O)CC1(C)OCCO1 [FRUCTONE ®, ETHYL 2-METHYL-1,3-DIOXOLANE-2-ACETATE]",1.3
11,CC(C)=CCCC(C)=CCO [GERANIOL LJ],3.47
12,"COC(=O)/C=C/c1ccccc1 [METHYL CINNAMATE, METHYL (E)-3-PHENYL-2-PROPENOATE]",2.62
13,"COC(=O)c1c(C)cc(O)c(C)c1O [MOUSSE CRISTAL, METHYL 2,4-DIHYDROXY-3,6-DIMETHYLBENZOATE]",3.22
14,"CC(C)=CC1CC(C)CCO1 (centres unmarked) [ROSE OXIDE, TETRAHYDRO-4-METHYL-2-(2-METHYL-1-PROPENYL)-2H-PYRAN]",3.58
15,"CCC(=O)OC1CC2CC1C1CC=CC21 (centres unmarked) [VERDYL PROPIONATE, TRICYCLO[5.2.1.0(2,6)]DEC-3-EN-8-YL PROPANOATE]",3.34

# Same assay, conditions: single raw materials of fragrances F1-F4 (Tables 1-4)
row,Compound,logP
1,1-OXA-12/13-CYCLOHEXADECEN-2-ONE [HABANOLIDE ®],4.88
2,2/3-METHYLBUTYL ACETATE [AMYL ACETATE],2.26
3,"CCC(=O)OCC(C)(C)O[C@@H](C)[C@@H]1CCCC(C)(C)C1 [HELVETOLIDE ®, (+)-(1S,1′R)-2[1-(3′,3′-DIMETHYL-1′-CYCLOHEXYL)ETHOXY]-2-METHYLPROPYL PROPANOATE]",5.51
4,CC1=CC(C)C(C=O)C(C)C1 (centres unmarked) [ISOCYCLOCITRAL],3.27
5,"OCCCc1ccccc1 [PHENYLPROPYL ALCOHOL, 3-PHENYL-1-PROPANOL]",1.88
6,ALLYL (2/3-METHYLBUTOXY)ACETATE [ALLYL AMYL GLYCOLATE],2.34

# Assay: physchem
# Settings: not given
row,Compound,logP
1,"CCC1CCC(=O)O1 (racemic) [GAMMA HEXALACTONE, (+ −)-4-HEXANOLIDE]",0.6
2,"CCOc1cc(C=O)ccc1O [ETHYL VANILLIN, 3-ethoxy-4-hydroxybenzaldehyde]",1.58

# — patent US11504310B2, “Aqueous microemulsion” (Firmenich SA, priority 2017, dated 2022)
